SMILES strings stand for the structures.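 Results reflect a 48-hour exposure of cells in 96-well plates to compound at five concentrations. GI50 marks 50% less growth. The concentration for full growth arrest is given as TGI.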

Test systems include NCI-H460 lung; A498 renal; HCT-116 colon; HS 578T breast; UO-31 renal; OVCAR-8 ovarian; HCT-15 colon; NCI-H226 lung; SK-MEL-5 melanoma; SNB-75 CNS.
What all share (test): DTP human tumour cell line panel, 48 h

In the case of `COc1cc2c3c(n(CCCN(C)C)c(=O)c2cc1OC)-c1ccccc1C3=O`, the GI50 (usually the concentration giving 50% growth inhibition) in the experiment with NCI-H460 lung is 3510 nM; with A498 renal, 24.7 µM; with HCT-116 colon it was 3710 nM; in the experiment on HS 578T breast it was 99700 nM; in the experiment with UO-31 renal, 16.7 µM; in the experiment on OVCAR-8 ovarian, 7870 nM. The GI50 is 17800 nM with HCT-15 colon, 18.6 µM with NCI-H226 lung, 10100 nM with SK-MEL-5 melanoma and 6900 nM in the experiment on SNB-75 CNS. Besides, the TGI (commonly the concentration giving total growth inhibition) in the experiment on NCI-H460 lung was 21.6 µM; in the experiment on A498 renal, more than 73.9 µM; with HCT-116 colon it was 16.6 µM; with HS 578T breast, more than 100 µM; in the experiment with UO-31 renal, 97.7 µM; with OVCAR-8 ovarian, more than 100 µM. Besides, the TGI in the experiment on HCT-15 colon was more than 53.3 µM; in the experiment on NCI-H226 lung, more than 100 µM; in the experiment with SK-MEL-5 melanoma, 47 µM; in the experiment with SNB-75 CNS, more than 100 µM.

Regarding `CC(C)S(=O)(=O)c1ccccc1Nc1nc(Nc2cccc(NC(=O)CN)c2)ncc1Cl`, the GI50 with NCI-H460 lung is 30.6 nM; in the experiment on A498 renal, less than 0.0242 µM; with HCT-116 colon, 40.3 nM; in the experiment with HS 578T breast it was 161 nM; in the experiment on UO-31 renal it was 0.176 µM; in the experiment on OVCAR-8 ovarian, 286 nM. Also, the GI50 is 160 nM with HCT-15 colon, 0.113 µM in the experiment with NCI-H226 lung, 136 nM in the experiment on SK-MEL-5 melanoma and 34.6 nM in the experiment on SNB-75 CNS. Further, the TGI is 1.64 µM with NCI-H460 lung; 0.493 µM in the experiment with A498 renal; 0.696 µM in the experiment on HCT-116 colon; 1.11 µM with HS 578T breast; 4.08 µM in the experiment on UO-31 renal; 6.97 µM in the experiment on OVCAR-8 ovarian. In addition, the TGI in the experiment on HCT-15 colon came out at 3.72 µM; in the experiment with NCI-H226 lung, 1.98 µM; in the experiment with SK-MEL-5 melanoma it was 0.894 µM; in the experiment on SNB-75 CNS it was 0.41 µM.

As to `CCc1ccccc1NC(=O)c1sc2nc3c(cc2c1N)C(=O)CCC3`, the GI50 was 367 nM in the experiment on NCI-H460 lung; 0.22 µM in the experiment on A498 renal; 512 nM in the experiment with HCT-116 colon; 398 nM with HS 578T breast; 14.8 µM with UO-31 renal; 2880 nM with OVCAR-8 ovarian. In addition, the GI50 in the experiment on HCT-15 colon is 406 nM; in the experiment on NCI-H226 lung it was 23.2 µM; in the experiment with SK-MEL-5 melanoma it was 329 nM; with SNB-75 CNS it was 346 nM. Moreover, the TGI in the experiment on NCI-H460 lung is more than 100 µM; in the experiment on A498 renal, 5.52 µM; with HCT-116 colon, more than 100 µM; in the experiment with HS 578T breast it was more than 100 µM; in the experiment on UO-31 renal, more than 100 µM; with OVCAR-8 ovarian, more than 100 µM. Besides, the TGI in the experiment on HCT-15 colon is more than 100 µM; in the experiment with NCI-H226 lung, more than 100 µM; with SK-MEL-5 melanoma, more than 100 µM; with SNB-75 CNS, 55.1 µM.

In the case of `O=C(/C=C/c1cc(CN2CCOCC2)c(O)c2ncccc12)c1cc(CN2CCOCC2)c(O)c2ncccc12`, the GI50 is less than 16.9 nM in the experiment with NCI-H460 lung; 0.246 µM with A498 renal; 24.5 nM in the experiment with HCT-116 colon; 71.3 nM with HS 578T breast; 0.0408 µM in the experiment with UO-31 renal; 35.9 nM in the experiment on OVCAR-8 ovarian. For the same molecule, the GI50 with HCT-15 colon is 23.6 nM; in the experiment on NCI-H226 lung it was 0.43 µM; in the experiment with SK-MEL-5 melanoma it was 23.7 nM; with SNB-75 CNS, 59.5 nM. The TGI with NCI-H460 lung is more than 55.9 µM; in the experiment with A498 renal, 18 µM; in the experiment on HCT-116 colon, more than 100 µM; with HS 578T breast, more than 100 µM; in the experiment with UO-31 renal, more than 100 µM; with OVCAR-8 ovarian, more than 100 µM. Besides, the TGI was more than 100 µM in the experiment with HCT-15 colon, 41.8 µM in the experiment on NCI-H226 lung, 0.0607 µM in the experiment with SK-MEL-5 melanoma and 42.6 µM in the experiment on SNB-75 CNS.

Consider `O=c1[nH]cnc2cccc(Cl)c12`, for which the TGI in the experiment on NCI-H460 lung, in the experiment with A498 renal, in the experiment on HCT-116 colon, in the experiment with HS 578T breast, with UO-31 renal and in the experiment on OVCAR-8 ovarian was more than 100 µM each time. For the same molecule, the TGI with HCT-15 colon, with NCI-H226 lung, with SK-MEL-5 melanoma and in the experiment on SNB-75 CNS was more than 100 µM each time.

Turning to `Cc1cn2c(/C=C3\C(=O)N(C)c4ccc(O)cc43)c(C)nc2s1`, the GI50 in the experiment on NCI-H460 lung is 3540 nM; in the experiment with A498 renal, 21.6 µM; with HCT-116 colon, 4040 nM; in the experiment with HS 578T breast, 5640 nM; in the experiment with UO-31 renal, 9.03 µM; in the experiment on OVCAR-8 ovarian it was 11300 nM. Further, the GI50 in the experiment on HCT-15 colon is 4160 nM; in the experiment on NCI-H226 lung, 52.1 µM; in the experiment with SK-MEL-5 melanoma, 3450 nM; with SNB-75 CNS, 2860 nM. Further, the TGI is 21.3 µM in the experiment on NCI-H460 lung; 60.4 µM in the experiment with A498 renal; more than 100 µM with HCT-116 colon; 40.8 µM in the experiment with HS 578T breast; more than 100 µM in the experiment with UO-31 renal; more than 100 µM in the experiment with OVCAR-8 ovarian. Besides, the TGI is more than 100 µM in the experiment on HCT-15 colon, more than 100 µM with NCI-H226 lung, 57.6 µM in the experiment on SK-MEL-5 melanoma and 10.2 µM with SNB-75 CNS.

With `COc1ccc2[nH]c3c4c(ccc3c2c1)C(=O)C=CC4=O`, the TGI in the experiment with NCI-H460 lung was found to be 54.1 µM; with A498 renal, 48.4 µM; in the experiment with HCT-116 colon, 13.9 µM; in the experiment with HS 578T breast it was 71.5 µM; in the experiment on UO-31 renal, 28.2 µM; in the experiment with OVCAR-8 ovarian it was 12.4 µM. Also, the TGI in the experiment on HCT-15 colon is 11.4 µM; with NCI-H226 lung, 49.9 µM; in the experiment with SK-MEL-5 melanoma it was 40.1 µM; in the experiment with SNB-75 CNS it was 41.3 µM.

On to `COc1ccc(-c2c[nH]c(=S)n2-c2ccc(OC)cc2)cc1`, for which the GI50 in the experiment with NCI-H460 lung is more than 50000 nM; in the experiment on A498 renal it was more than 50 µM; in the experiment with HCT-116 colon it was more than 50000 nM; in the experiment with HS 578T breast, more than 50000 nM; with UO-31 renal it was more than 50 µM; with OVCAR-8 ovarian, more than 50000 nM. Moreover, the GI50 was more than 50000 nM in the experiment on HCT-15 colon, more than 50 µM in the experiment with NCI-H226 lung, more than 50000 nM in the experiment with SK-MEL-5 melanoma and more than 50000 nM in the experiment with SNB-75 CNS. The TGI in the experiment on NCI-H460 lung, in the experiment with A498 renal, in the experiment with HCT-116 colon, with HS 578T breast, in the experiment with UO-31 renal and in the experiment on OVCAR-8 ovarian was more than 50 µM each time. In addition, the TGI in the experiment with HCT-15 colon, in the experiment with NCI-H226 lung, with SK-MEL-5 melanoma and in the experiment with SNB-75 CNS was more than 50 µM throughout.
